Values after ≈ are worked out from the molar mass of the structure shown.
Assays:
human TLR7 = molecular target: T1, human TLR7 (Homo sapiens, UniProt Q9NYK1); assay: HEK293-Blue-hTLR7 cells assay (SEAP reporter, NF-κB activation)
T1 sequence (Q9NYK1 27-1049): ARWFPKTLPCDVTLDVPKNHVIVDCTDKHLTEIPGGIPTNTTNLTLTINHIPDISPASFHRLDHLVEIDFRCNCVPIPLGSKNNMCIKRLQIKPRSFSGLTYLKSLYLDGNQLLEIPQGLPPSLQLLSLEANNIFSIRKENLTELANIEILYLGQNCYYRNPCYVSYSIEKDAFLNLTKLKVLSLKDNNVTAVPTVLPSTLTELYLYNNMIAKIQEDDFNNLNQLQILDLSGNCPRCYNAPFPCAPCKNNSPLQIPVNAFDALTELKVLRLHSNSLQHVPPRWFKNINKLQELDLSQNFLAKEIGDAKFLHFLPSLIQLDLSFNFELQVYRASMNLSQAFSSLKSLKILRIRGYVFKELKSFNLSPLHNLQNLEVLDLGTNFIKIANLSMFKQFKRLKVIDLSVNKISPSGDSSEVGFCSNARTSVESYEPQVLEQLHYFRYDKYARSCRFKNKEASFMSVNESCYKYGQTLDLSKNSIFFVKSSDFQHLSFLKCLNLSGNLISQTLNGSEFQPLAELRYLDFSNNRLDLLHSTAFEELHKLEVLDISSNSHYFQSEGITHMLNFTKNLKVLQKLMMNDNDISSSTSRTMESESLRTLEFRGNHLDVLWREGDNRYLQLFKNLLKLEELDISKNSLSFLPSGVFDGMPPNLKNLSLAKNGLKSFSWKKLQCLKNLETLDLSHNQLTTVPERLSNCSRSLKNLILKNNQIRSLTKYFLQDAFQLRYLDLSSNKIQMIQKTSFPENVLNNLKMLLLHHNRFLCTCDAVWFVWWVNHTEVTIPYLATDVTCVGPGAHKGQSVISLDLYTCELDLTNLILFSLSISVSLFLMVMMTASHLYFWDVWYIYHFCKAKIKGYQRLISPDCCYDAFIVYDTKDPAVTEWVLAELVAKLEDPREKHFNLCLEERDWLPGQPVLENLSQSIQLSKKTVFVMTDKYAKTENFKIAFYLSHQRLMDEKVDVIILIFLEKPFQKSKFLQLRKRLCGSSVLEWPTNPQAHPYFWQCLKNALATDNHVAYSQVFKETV
Text: A stable HEK293-Blue-h TLR7 cell line was purchased from InvivoGen (Cat. #: hkb-htlr7, San Diego, California, USA). These cells were designed for studying the stimulation of human TLR7 by monitoring the activation of NF-κB. A SEAP (secreted embryonic alkaline phosphatase) reporter gene was placed under the control of the IFN-β minimal promoter fused to five NF-κB and AP-1-binding sites. The SEAP was induced by activating NF-κB and AP-1 via stimulating HEK-Blue hTLR7 cells with TLR7 ligands. Therefore the reporter expression was regulated by the NF-κB promoter upon stimulation of human TLR7 for 20 hrs. The cell culture supernatant SEAP reporter activity was determined using QUANTI-Blue™ kit (Cat. #: rep-qb1, Invivogen, San Diego, Ca, USA) at a wavelength of 640 nm, a detection medium that turns purple or blue in the presence of alkaline phosphatase.
HEK293-Blue-hTLR7 cells were incubated at a density of 250,000˜450,000 cells/mL in a volume of 180 μL in a 96-well plate in Dulbecco's Modified Eagle's medium (DMEM) containing 4.5 g/L glucose, 50 U/mL penicillin, 50 mg/mL streptomycin, 100 mg/mL Normocin, 2 mM L-glutamine, 10% (V/V) heat-inactivated fetal bovine serum for 24 hrs. Then the HEK293-Blue-hTLR7 cells were incubated with addition of 20 μL test compound in a serial dilution in the presence of final DMSO at 1% and perform incubation under 37° C. in a CO2 incubator for 20 hrs.

[1] = Lyophilisation solubility assay (LYSA), kinetic solubility; format: physicochemical; settings: aqueous buffer; 0.05 M phosphate buffer (pH 6.5), from 10 mM DMSO stock after evaporation
Text: The solubility of a substance can be broadly defined as the maximum amount of the substance that dissolves in a specified volume of solvent. However, it is important to understand that the solubility of a compound can vary drastically depending on the condition of the solvent (e.g. temperature and pH) and the physiochemical properties of the compound (e.g. ionisation and crystallinity). These critical factors need to be considered during solubility determination in order to generate high quality solubility data that will be useful in the progression of compounds through the discovery and development stages. The kinetic solubility of a compound is the maximum solubility of the fastest precipitating species of the compound; this is often measured using a stock solution of the compound dissolved in an organic solvent, typically dimethyl sulfoxide (DMSO), as the starting material. […] The precipitate formed, which is rarely determined during the assessment, could be any combination of various possible solid states of the compound. Given the level of supersaturation that could occur when an organic solvent is diluted in water, kinetic solubility values are typically higher than the corresponding thermodynamic (equilibrium) solubility values. Solubility assays in the early discovery process often determine kinetic solubility. The lyophilisation solubility assay (LYSA) is a high throughput kinetic solubility assay for the early drug discovery process.
Samples were prepared in duplicate from 10 mM DMSO stock solution. After evaporation of DMSO with a centrifugal vacuum evaporator, the compounds were solved in 0.05 M phosphate buffer (pH 6.5), stirred for one hour and shaken for two hours. After one night, the solutions were filtered using a microtiter filter plate. Then the filtrate and its 1/10 dilution were analyzed by HPLC-UV. […] The results were in μg/mL. […] It should be noted that metastable solid phases may form during the evaporation step, and the method might therefore produce higher solubility values than assays using the stable polymorph as the starting material.

[2] = Thermodynamic solubility assay (THESA), equilibrium solubility; format: physicochemical; settings: 22 °C, aqueous buffer, thermodynamic from solid; 50 mM phosphate buffer (pH 6.5), room temperature (22±2° C.)
Procedure: The thermodynamic (equilibrium) solubility is the saturation solubility of a compound at the end of the dissolution process, where the dissolved compound is in equilibrium with the undissolved material in excess. The thermodynamic solubility is determined by dispensing a solid compound into a solvent. This is often deemed as the true solubility of the compound and is a critical piece of information in formulation development. The thermodynamic solubility assay (THESA) is a widely used tool for the measurement of equilibrium solubility for the later drug discovery process and is considered as a gold standard solubility assay.
Approximately 1-2 mg of each compound was added into 300 μL of 50 mM phosphate buffer (pH 6.5) at room temperature (22±2° C.). Each sample is placed in a microanalysis tube, which was sonicated for 1 h and shaken for 2 h. All suspensions were left overnight (about 16 h). On the next day, the samples were filtered into a V-bottom plate with a micronic filterplate to separate the solid material from the solution. Then, all solutions were diluted into 96 well V-bottom microplates and analyzed by UPLC-UV. The calibration line was established by UPLC using 5 different dilutions of the compound in a DMSO stock solution, made in micronic tubes (concentration approximately 1 mg/mL). Dilutions took place with DMSO. From this regression equation the solubility of the compound was determined. In cases where the drug was completely dissolved in the buffer, the value for equilibrium solubility was assumed to be higher than the value determined by UPLC and reported as such.

Row | EC50 (human TLR7) [nM] | solubility kinetic [1] [µg/mL] | solubility thermodynamic [2] [µg/mL] | SMILES
1 | 84 | > 560 | – | CCN(C)CCNc1ccc(Cn2c(=O)[nH]c3c(N)nc(P(C)(C)=O)nc32)cn1 [Example 12, 6-amino-2-dimethylphosphoryl-9-[[6-[2-[ethyl(methyl)amino]ethylamino]-3-pyridyl]methyl]-7H-purin-8-one]
2 | – | > 530 | – | CC[P@](C)(=O)c1nc(N)c2[nH]c(=O)n(Cc3ccc(N4CCN(C)CC4)nc3)c2n1 [Example 13-B, 6-amino-2-[(S)-ethyl(methyl)phosphoryl]-9-[[6-(4-methylpiperazin-1-yl)-3-pyridyl]methyl]-7H-purin-8-one]
3 | – | 150 | – | CC[P@@](C)(=O)c1nc(N)c2[nH]c(=O)n(Cc3ccc(N4CCN(S(C)(=O)=O)CC4)nc3)c2n1 [Example 14-A, 6-amino-2-[(R)-ethyl(methyl)phosphoryl]-9-[[6-(4-methylsulfonylpiperazin-1-yl)-3-pyridyl]methyl]-7H-purin-8-one]
4 | – | 170 | – | CC[P@](C)(=O)c1nc(N)c2[nH]c(=O)n(Cc3ccc(N4CCN(S(C)(=O)=O)CC4)nc3)c2n1 [Example 14-B, 6-amino-2-[(S)-ethyl(methyl)phosphoryl]-9-[[6-(4-methylsulfonylpiperazin-1-yl)-3-pyridyl]methyl]-7H-purin-8-one]
5 | 45 | > 540 | – | CC[P@@](C)(=O)c1nc(N)c2[nH]c(=O)n(Cc3ccc(NCCNC)nc3)c2n1 [Example 17, 6-amino-2-[(R)-ethyl(methyl)phosphoryl]-9-[[6-[2-(methylamino)ethylamino]-3-pyridyl]methyl]-7H-purin-8-one]
6 | 9 | > 580 | 2370 (≈ 5.47 mM) | CCP(=O)(CC)c1nc(N)c2[nH]c(=O)n(Cc3ccc(NCCN(C)C)nc3)c2n1 [Example 19, 6-amino-2-diethylphosphoryl-9-[[6-[2-(dimethylamino)ethylamino]-3-pyridyl]methyl]-7H-purin-8-one]

Continued, compound first:

Row | SMILES | EC50 (human TLR7) [nM] | solubility kinetic [1] [µg/mL] | solubility thermodynamic [2] [µg/mL]
7 | CP(C)(=O)c1nc(N)c2[nH]c(=O)n(Cc3ccc(N4CCC(N)C4)nc3)c2n1 (stereo not shown) [Example 3, 6-amino-9-[[6-(3-aminopyrrolidin-1-yl)-3-pyridyl]methyl]-2-dimethylphosphoryl-7H-purin-8-one] | 28 | > 600 | –
8 | CC1(C)CN(c2ccc(Cn3c(=O)[nH]c4c(N)nc(P(C)(C)=O)nc43)cn2)CCN1 [Example 4, 6-amino-2-dimethylphosphoryl-9-[[6-(3,3-dimethylpiperazin-1-yl)-3-pyridyl]methyl]-7H-purin-8-one] | 10 | > 640 | –
9 | CP(C)(=O)c1nc(N)c2[nH]c(=O)n(Cc3ccc(N4CC5CCC4CN5)nc3)c2n1 (stereo not shown) [Example 5, 6-amino-9-[[6-(2,5-diazabicyclo[2.2.2]octan-2-yl)-3-pyridyl]methyl]-2-dimethylphosphoryl-7H-purin-8-one] | 12 | > 570 | –
10 | CP(C)(=O)c1nc(N)c2[nH]c(=O)n(Cc3ccc(N4CC5CNCC5C4)nc3)c2n1 (stereo not shown) [Example 6, 9-[[6-(2,3,3a,4,6,6a-hexahydro-1H-pyrrolo[3,4-c]pyrrol-5-yl)-3-pyridyl]methyl]-6-amino-2-dimethylphosphoryl-7H-purin-8-one] | 27 | > 630 | –
11 | CP(C)(=O)c1nc(N)c2[nH]c(=O)n(Cc3ccc(NCCN4CCCC4)nc3)c2n1 [Example 7, 6-amino-2-dimethylphosphoryl-9-[[6-(2-pyrrolidin-1-ylethylamino)-3-pyridyl]methyl]-7H-purin-8-one] | 38 | > 540 | –
12 | CP(C)(=O)c1nc(N)c2[nH]c(=O)n(Cc3ccc(NC4CCOCC4)nc3)c2n1 [Example 8, 6-amino-2-dimethylphosphoryl-9-[[6-(tetrahydropyran-4-ylamino)-3-pyridyl]methyl]-7H-purin-8-one] | 39 | > 520 | –
13 | CN(C)CC1CCN(c2ccc(Cn3c(=O)[nH]c4c(N)nc(P(C)(C)=O)nc43)cn2)C1 (stereo not shown) [Example 9, 6-amino-9-[[6-[3-[(dimethylamino)methyl]pyrrolidin-1-yl]-3-pyridyl]methyl]-2-dimethylphosphoryl-7H-purin-8-one] | 21 | > 650 | –
14 | CN1CCOC2(CCN(c3ccc(Cn4c(=O)[nH]c5c(N)nc(P(C)(C)=O)nc54)cn3)CC2)C1 [Example 10, 6-amino-2-dimethylphosphoryl-9-[[6-(4-methyl-1-oxa-4,9-diazaspiro[5.5]undecan-9-yl)-3-pyridyl]methyl]-7H-purin-8-one] | 24 | > 650 | –
15 | CN1CCC(Nc2ccc(Cn3c(=O)[nH]c4c(N)nc(P(C)(C)=O)nc43)cn2)C1 (stereo not shown) [Example 11, 6-amino-2-dimethylphosphoryl-9-[[6-[(1-methylpyrrolidin-3-yl)amino]-3-pyridyl]methyl]-7H-purin-8-one] | 28 | > 620 | –

Source: patent US20250215032A1, “PHOSPHORYLPURINONE COMPOUNDS FOR THE TREATMENT OF CANCER” (Hoffmann-La Roche Inc., priority 2022, published 2025)
